# According to patent publication US20170334899A1, “AMINO-SUBSTITUTED ISOTHIAZOLES” (Bayer Pharma Aktiengesellschaft, priority 2014, published 2017):
# Tests used:
# Type in all cases: cell-based
# [1] = test system: human cervical tumor cell line HeLa (ATCC CCL-2); assay: SAC-Formation - Nocodazole-Induced Assay; conditions: Homo sapiens, HeLa, 24 h, HeLa cells, nocodazole 0.1 μg/ml together with test compound, decrease of mitotic cells (phospho-histone H3 Ser10)
# Text: (§1) The spindle assembly checkpoint assures the proper segregation of chromosomes during mitosis. Upon entry into mitosis, chromosomes begin to condensate which is accompanied by the phosphorylation of histone H3 on serine 10. Dephosphorylation of histone H3 on serine 10 begins in anaphase and ends at early telophase. Accordingly, phosphorylation of histone H3 on serine 10 can be utilized as a marker of cells in mitosis. Nocodazole is a microtubule destabilizing substance. Paclitaxel is a microtubule stabilizing compound. Thus, nocodazole as well as paclitaxel interfere with microtubule dynamics and mobilize the spindle assembly checkpoint. […] The mitotic breakthrough can be detected by the decrease of cells with phosphorylation of histone H3 on serine 10. This decline is used as a marker to determine the capability of compounds of the present invention to induce a mitotic breakthrough. The typical morphological alteration of nuclei with a prematurely completed mitosis after SAC-inhibition can be monitored via image analysis routines supporting those findings.
# (§2) The nocodazole and paclitaxel variations were used to focus on compounds that are capable of inhibiting a SAC induced by both microtubule destabilization as well as microtubule stabilization. When SAC inducing agents and compounds are given simultaneously inhibitors that effectively block the SAC during formation or abrogation are identified. When cells are incubated with a SAC inducing agent and the SAC interfering compound is given after a defined time, inhibitors are identified that effectively block SAC abrogation.
# (§3) Cultivated cells of the human cervical tumor cell line HeLa (ATCC CCL-2) were plated at a density of 1000 cells/well in a 1536-well microtiter plate in 2 μl PAA Ham's F12 Medium supplemented with 1% (v/v) glutamine, 1% (v/v) penicillin, 1% (v/v) streptomycin and 10% (v/v) fetal calf serum. After incubation overnight at 37° C., 10 μl/well nocodazole at a final concentration of 0.1 μg/ml were added to cells. Test compounds solubilized in dimethyl sulfoxide (DMSO) were added at various concentrations (0 μM, as well as in the range of 0.005 μM-20 μM; the final concentration of the solvent DMSO was 0.5% (v/v)). Cells were incubated for 24 h at 37° C. in the presence of test compounds in combination with nocodazole. Thereafter, cells were fixed in 4% (v/v) paraformaldehyde in phosphate buffered saline (PBS) at 4° C. overnight then permeabilized in 0.1% (v/v) Triton X™ 100 in PBS at room temperature for 20 min and blocked in 0.5% (v/v) bovine serum albumin (BSA) in PBS at room temperature for 15 min. After washing with PBS, 5 μl/well antibody solution (anti-phospho-histone H3 clone 3H10, FITC; Millipore, Cat#16-222; 1:1000 dilution) was added to cells, which were incubated for 2 h at room temperature. Afterwards, cells were washed with PBS and 5 μl/well solution of HOECHST 33342 dye (5 μg/ml) was added to cells and cells were incubated 15 min at room temperature in the dark. Cells were washed twice with PBS then covered with PBS and stored at 4° C. until analysis. Images were acquired with a PERKIN ELMER OPERA™ High-Content Analysis reader. Images were analyzed with image analysis software MetaXpress™ from Molecular devices utilizing the Mitotic Index application module. In this assay both labels HOECHST 33342 and phosphorylated Histone H3 on serine 10 were measured. HOECHST 33342 labels the DNA and is used to count the cell number. The staining of phosphorylated Histone H3 on serine 10 determines the number of mitotic cells. […] Otherwise cells were arrested at G2/M phase of the cell cycle progression. The raw assay data were further analyzed by four-parametric hill equation using Genedata's Assay Analyzer and Condoseo software.
# [2] = test system: human cervical tumor cell line HeLa (ATCC CCL-2); assay: SAC-Formation - Paclitaxel-Induced Assay; conditions: Homo sapiens, HeLa, 24 h, HeLa cells, paclitaxel 0.05 μM, test range 0.005 μM-20 μM, read-out: IC50 [mol/l] SAC-Formation - Paclitaxel-Induced Assay
# Text: as §1, §2
# Cultivated cells of the human cervical tumor cell line HeLa (ATCC CCL-2) were plated at a density of 1000 cells/well in a 1536-well microtiter plate in 2 μl PAA
# as §3, with “Ham's” for “Cultivated cells of the human cervical tumor cell line HeLa (ATCC CCL-2) were plated at a density of 1000 cells/well in a 1536-well microtiter plate in 2 μl PAA Ham's”, “paclitaxel” for “nocodazole”, “0.05 μM” for “0.1 μg/ml”, “μM -20” for “μM-20”, “paclitaxel.” for “nocodazole.”
# HeLa = assay: Proliferation assay (crystal violet), HeLa; conditions: Homo sapiens, HeLa, 96 h, HeLa cells; 4 days incubation; crystal violet staining; read-out: IC50 inhibition of proliferation, HeLa
# Experimental: Cultivated tumor cells (cells were ordered from ATCC, except HeLa-MaTu and HeLa-MaTu-ADR, which were ordered from EPO-GmbH, Berlin) were plated at a density of 1000 to 5000 cells/well, depending on the growth rate of the respective cell line, in a 96-well multititer plate in 200 μL of their respective growth medium supplemented 10% fetal calf serum. After 24 hours, the cells of one plate (zero-point plate) were stained with crystal violet (see below), while the medium of the other plates was replaced by fresh culture medium (200 μl), to which the test substances were added in various concentrations (0 μM, as well as in the range of 0.001-10 μM; the final concentration of the solvent dimethyl sulfoxide was 0.5%). The cells were incubated for 4 days in the presence of test substances. Cell proliferation was determined by staining the cells with crystal violet: the cells were fixed by adding 20 μl/measuring point of an 11% glutaric aldehyde solution for 15 minutes at room temperature. After three washing cycles of the fixed cells with water, the plates were dried at room temperature. The cells were stained by adding 100 μl/measuring point of a 0.1% crystal violet solution (pH 3.0). After three washing cycles of the stained cells with water, the plates were dried at room temperature. The dye was dissolved by adding 100 μl/measuring point of a 10% acetic acid solution. Absorbtion was determined by photometry at a wavelength of 595 nm. The change of cell number, in percent, was calculated by normalization of the measured values to the aborbtion values of the zero-point plate (=0%) and the absorbtion of the untreated (0 μm) cells (=100%). The IC50 values were determined by means of a 4 parameter fit.
SMILES,IC50 [1],IC50 [2],IC50 (HeLa)
"Cc1nsc(Nc2cnc3ccccc3n2)c1C(=O)Nc1cccc(C(=O)Nc2ccc(N3CCOCC3)cc2)c1 [Example 65, 3-Methyl-N-(3-{[4-(morpholin-4-yl)phenyl]carbamoyl}phenyl)-5-(quinoxalin-2-ylamino)-1,2-thiazole-4-carboxamide]",0.41 µM,7.4 µM,8.2 µM
"CC(=O)Nc1ccccc1NC(=O)c1cccc(NC(=O)c2c(C)nsc2Nc2cnc3ccccc3n2)c1 [Example 84, N-(3-{[2-(Acetylamino)phenyl]carbamoyl}phenyl)-3-methyl-5-(quinoxalin-2-ylamino)-1,2-thiazole-4-carboxamide]",0.096 µM,8.4 µM,10 µM
"CCN(C)C(=O)c1cccc(NC(=O)c2c(C)nsc2Nc2cnc3ccccc3n2)c1 [Example 67, N-{3-[Ethyl(methyl)carbamoyl]phenyl}-3-methyl-5-(quinoxalin-2-ylamino)-1,2-thiazole-4-carboxamide]",0.016 µM,0.67 µM,10 µM
"COC(=O)CN(C)C(=O)c1cccc(NC(=O)c2c(C)nsc2Nc2cnc3ccccc3n2)c1 [Example 76, Methyl N-methyl-N-[3-({[3-methyl-5-(quinoxalin-2-ylamino)-1,2-thiazol-4-yl]carbonyl}amino)benzoyl]-glycinate]",5 µM,18 µM,10 µM
"Cc1nsc(Nc2cnc3ccccc3n2)c1C(=O)Nc1cccc(C(=O)N(C)CCCN(C)C)c1 [Example 68, N-(3-{[3-(Dimethylamino)propyl](methyl)carbamoyl}-phenyl)-3-methyl-5-(quinoxalin-2-ylamino)-1,2-thiazole-4-carboxamide]",0.11 µM,1.1 µM,10 µM
"COC(=O)CCNC(=O)c1cccc(NC(=O)c2c(C)nsc2Nc2cnc3ccccc3n2)c1 [Example 74, Methyl N-[3-({[3-methyl-5-(quinoxalin-2-ylamino)-1,2-thiazol-4-yl]carbonyl}amino)benzoyl]-β-alaninate]",1.3 µM,5.3 µM,10 µM

# Other lines, results leading:
IC50 [1],IC50 [2],IC50 (HeLa),SMILES
0.031 µM,0.28 µM,10 µM,"Cc1nsc(Nc2cnc3ccccc3n2)c1C(=O)Nc1cccc(C(=O)N2CCC(N3CCCCC3)CC2)c1 [Example 61, N-[3-(1,4′-Bipiperidin-1′-ylcarbonyl)phenyl]-3-methyl-5-(quinoxalin-2-ylamino)-1,2-thiazole-4-carboxamide]"
0.94 µM,8.4 µM,10 µM,"Cc1nsc(Nc2cnc3ccccc3n2)c1C(=O)Nc1cccc(C(=O)N2CCN(CCc3ccccn3)CC2)c1 [Example 94, 3-Methyl-N-[3-({4-[2-(pyridin-2-yl)ethyl]piperazin-1-yl}-carbonyl)phenyl]-5-(quinoxalin-2-ylamino)-1,2-thiazole-4-carboxamide]"
0.031 µM,0.48 µM,10 µM,"Cc1nsc(Nc2cnc3ccccc3n2)c1C(=O)Nc1cccc(C(=O)N2CCN(C(=O)c3ccccc3)CC2)c1 [Example 88, N-{3-[(4-Benzoylpiperazin-1-yl)carbonyl]phenyl}-3-methyl-5-(quinoxalin-2-ylamino)-1,2-thiazole-4-carboxamide]"
0.052 µM,10 µM,10 µM,"Cc1nsc(Nc2cnc3ccccc3n2)c1C(=O)Nc1cccc(C(=O)NCCN2CCCC2)c1 [Example 72, 3-Methyl-N-(3-{[2-(pyrrolidin-1-yl)ethyl]carbamoyl}phenyl)-5-(quinoxalin-2-ylamino)-1,2-thiazole-4-carboxamide]"
0.9 µM,3.7 µM,10 µM,"Cc1nsc(Nc2cnc3ccccc3n2)c1C(=O)Nc1cccc(C(=O)N2CCN(c3cnccn3)CC2)c1 [Example 79, 3-Methyl-N-(3-{[4-(pyrazin-2-yl)piperazin-1-yl]carbonyl}-phenyl)-5-(quinoxalin-2-ylamino)-1,2-thiazole-4-carboxamide]"
0.94 µM,20 µM,10 µM,"Cc1nsc(Nc2cnc3ccccc3n2)c1C(=O)Nc1cccc(C(=O)N2CCN(CC(=O)N(C)C)CC2)c1 [Example 92, N-[3-({4-[2-(Dimethylamino)-2-oxoethyl]piperazin-1-yl}-carbonyl)phenyl]-3-methyl-5-(quinoxalin-2-ylamino)-1,2-thiazole-4-carboxamide]"
0.39 µM,1.5 µM,4.5 µM,"Cc1nsc(Nc2cnc3ccccc3n2)c1C(=O)Nc1cccc(C(=O)N2CCN(c3cccc(F)c3)CC2)c1 [Example 87, N-(3-{[4-(3-Fluorophenyl)piperazin-1-yl]carbonyl}phenyl)-3-methyl-5-(quinoxalin-2-ylamino)-1,2-thiazole-4-carboxamide]"
